Holding throughout (assay): kinome screen (33PanQinase)
What all share (type): biochemical

One test deals with T1, GRK7 (Homo sapiens, UniProt Q8WTQ7).
T1 construct: purchased Reaction Biology Europe GmbH (formerly ProQinase)
T1 sequence (Q8WTQ7 1-553): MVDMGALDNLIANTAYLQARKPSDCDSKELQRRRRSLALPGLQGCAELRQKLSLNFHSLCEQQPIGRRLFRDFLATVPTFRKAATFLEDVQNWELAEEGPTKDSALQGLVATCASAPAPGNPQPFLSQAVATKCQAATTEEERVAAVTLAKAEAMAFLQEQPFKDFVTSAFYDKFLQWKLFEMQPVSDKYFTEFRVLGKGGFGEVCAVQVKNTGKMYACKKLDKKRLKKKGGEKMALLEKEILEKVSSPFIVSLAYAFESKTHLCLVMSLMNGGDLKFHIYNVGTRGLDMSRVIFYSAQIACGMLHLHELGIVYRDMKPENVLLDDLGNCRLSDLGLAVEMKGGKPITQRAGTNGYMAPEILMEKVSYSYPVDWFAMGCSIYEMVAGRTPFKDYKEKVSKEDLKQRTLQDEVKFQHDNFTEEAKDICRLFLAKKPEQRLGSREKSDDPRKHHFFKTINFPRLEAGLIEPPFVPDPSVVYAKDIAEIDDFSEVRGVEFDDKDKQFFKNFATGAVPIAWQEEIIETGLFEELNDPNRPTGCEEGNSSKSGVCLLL
The protocol:
(§1) The Kinome Screening was performed by Reaction Biology Europe GmbH (http://reactionbiology.com; Freiburg i. Br., Germany).

The target in a further test is T2, ARK5 (Homo sapiens, UniProt O60285).
T2 construct: purchased Reaction Biology Europe GmbH (formerly ProQinase)
T2 sequence (O60285 1-661): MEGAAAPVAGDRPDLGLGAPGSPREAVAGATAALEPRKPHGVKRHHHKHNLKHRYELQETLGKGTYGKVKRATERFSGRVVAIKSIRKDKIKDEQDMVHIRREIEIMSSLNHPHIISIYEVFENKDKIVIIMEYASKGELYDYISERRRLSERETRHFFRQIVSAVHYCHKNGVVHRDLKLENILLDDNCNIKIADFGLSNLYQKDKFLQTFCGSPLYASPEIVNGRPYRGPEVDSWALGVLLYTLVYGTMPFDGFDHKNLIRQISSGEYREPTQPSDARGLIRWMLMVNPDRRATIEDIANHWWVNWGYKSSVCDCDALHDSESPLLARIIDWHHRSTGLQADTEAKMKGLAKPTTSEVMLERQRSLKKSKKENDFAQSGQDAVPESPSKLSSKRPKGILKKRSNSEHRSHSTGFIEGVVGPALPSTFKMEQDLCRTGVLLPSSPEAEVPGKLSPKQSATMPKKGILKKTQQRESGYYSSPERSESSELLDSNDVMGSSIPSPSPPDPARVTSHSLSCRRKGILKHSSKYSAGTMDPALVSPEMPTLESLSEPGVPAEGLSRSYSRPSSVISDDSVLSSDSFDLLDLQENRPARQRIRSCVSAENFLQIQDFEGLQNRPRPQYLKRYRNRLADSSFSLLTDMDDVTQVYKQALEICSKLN
The protocol:
as §1

A further test concerns the target T3, TIE2 (Homo sapiens, UniProt Q02763).
T3 construct: purchased Reaction Biology Europe GmbH (formerly ProQinase)
As for the experimental part: as §1

Another test has as its target T4, TTK (Homo sapiens, UniProt P33981).
T4 construct: purchased Reaction Biology Europe GmbH (formerly ProQinase)
T4 sequence (P33981 1-857): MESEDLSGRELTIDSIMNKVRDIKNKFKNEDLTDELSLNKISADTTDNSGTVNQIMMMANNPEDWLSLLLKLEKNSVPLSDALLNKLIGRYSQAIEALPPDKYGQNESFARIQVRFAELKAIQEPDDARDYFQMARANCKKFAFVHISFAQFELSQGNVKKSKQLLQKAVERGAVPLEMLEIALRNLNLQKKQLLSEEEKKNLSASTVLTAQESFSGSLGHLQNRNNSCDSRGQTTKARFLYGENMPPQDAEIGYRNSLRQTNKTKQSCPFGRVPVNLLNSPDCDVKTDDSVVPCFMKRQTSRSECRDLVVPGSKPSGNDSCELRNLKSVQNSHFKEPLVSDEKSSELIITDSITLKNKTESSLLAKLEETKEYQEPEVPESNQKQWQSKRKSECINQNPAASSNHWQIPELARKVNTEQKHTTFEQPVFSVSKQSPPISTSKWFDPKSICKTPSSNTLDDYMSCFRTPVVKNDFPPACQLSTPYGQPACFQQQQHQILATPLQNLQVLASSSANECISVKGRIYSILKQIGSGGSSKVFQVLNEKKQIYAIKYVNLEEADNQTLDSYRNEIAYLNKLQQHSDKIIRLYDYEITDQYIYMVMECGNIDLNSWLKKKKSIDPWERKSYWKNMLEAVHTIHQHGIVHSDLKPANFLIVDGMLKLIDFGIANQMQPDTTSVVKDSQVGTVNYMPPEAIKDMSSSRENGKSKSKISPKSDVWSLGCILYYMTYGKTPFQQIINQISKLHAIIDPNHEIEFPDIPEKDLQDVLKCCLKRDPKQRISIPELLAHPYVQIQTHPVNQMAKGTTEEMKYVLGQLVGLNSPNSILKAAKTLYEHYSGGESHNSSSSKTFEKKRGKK
As for the experimental part:
as §1

A further test has as its target T5, GRK5 (Homo sapiens, UniProt P34947).
T5 construct: purchased Reaction Biology Europe GmbH (formerly ProQinase)
As for the experimental part:
as §1

Another test deals with T6, SGK1 (Homo sapiens, UniProt O00141).
T6 construct: purchased Reaction Biology Europe GmbH (formerly ProQinase)
T6 sequence (O00141 1-431): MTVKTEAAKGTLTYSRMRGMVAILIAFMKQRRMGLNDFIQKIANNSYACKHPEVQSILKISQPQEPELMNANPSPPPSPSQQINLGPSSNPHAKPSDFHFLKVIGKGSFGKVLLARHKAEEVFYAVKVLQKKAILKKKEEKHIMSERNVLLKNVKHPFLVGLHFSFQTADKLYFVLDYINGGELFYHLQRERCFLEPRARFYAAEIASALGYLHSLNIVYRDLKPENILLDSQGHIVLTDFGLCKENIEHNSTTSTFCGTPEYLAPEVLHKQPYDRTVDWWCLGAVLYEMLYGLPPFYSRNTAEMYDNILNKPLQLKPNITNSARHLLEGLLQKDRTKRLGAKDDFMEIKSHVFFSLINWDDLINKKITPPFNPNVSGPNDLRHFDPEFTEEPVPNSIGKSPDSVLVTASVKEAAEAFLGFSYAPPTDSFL
The protocol: as §1

The target of another test is T7, SIK1 (Homo sapiens, UniProt P57059).
T7 construct: purchased Reaction Biology Europe GmbH (formerly ProQinase)
The protocol:
as §1

In a further test the target is T8, CLK3 (Homo sapiens, UniProt P49761).
T8 construct: purchased Reaction Biology Europe GmbH (formerly ProQinase)
As for the experimental part:
as §1

T7 sequence (P57059 whole entry): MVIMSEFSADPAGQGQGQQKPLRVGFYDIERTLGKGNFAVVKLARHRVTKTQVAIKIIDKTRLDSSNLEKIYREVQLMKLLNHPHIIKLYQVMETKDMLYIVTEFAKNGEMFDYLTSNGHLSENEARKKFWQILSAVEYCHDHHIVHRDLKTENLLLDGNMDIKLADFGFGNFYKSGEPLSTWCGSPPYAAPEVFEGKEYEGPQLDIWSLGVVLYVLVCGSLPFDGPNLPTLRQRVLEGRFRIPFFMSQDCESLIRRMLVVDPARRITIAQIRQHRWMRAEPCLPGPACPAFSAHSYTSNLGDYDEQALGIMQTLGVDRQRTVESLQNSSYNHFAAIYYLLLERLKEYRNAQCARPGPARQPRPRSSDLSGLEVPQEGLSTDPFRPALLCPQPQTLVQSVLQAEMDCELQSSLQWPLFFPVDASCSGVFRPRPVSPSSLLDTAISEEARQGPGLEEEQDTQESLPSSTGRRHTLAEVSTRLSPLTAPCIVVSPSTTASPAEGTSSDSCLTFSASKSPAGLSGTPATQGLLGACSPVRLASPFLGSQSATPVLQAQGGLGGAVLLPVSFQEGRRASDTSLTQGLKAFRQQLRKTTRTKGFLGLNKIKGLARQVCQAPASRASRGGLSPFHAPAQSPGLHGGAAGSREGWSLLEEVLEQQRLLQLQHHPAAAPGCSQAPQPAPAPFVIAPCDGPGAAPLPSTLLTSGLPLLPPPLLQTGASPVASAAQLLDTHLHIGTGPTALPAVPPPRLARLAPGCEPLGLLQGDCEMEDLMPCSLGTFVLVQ
T8 sequence (P49761 whole entry): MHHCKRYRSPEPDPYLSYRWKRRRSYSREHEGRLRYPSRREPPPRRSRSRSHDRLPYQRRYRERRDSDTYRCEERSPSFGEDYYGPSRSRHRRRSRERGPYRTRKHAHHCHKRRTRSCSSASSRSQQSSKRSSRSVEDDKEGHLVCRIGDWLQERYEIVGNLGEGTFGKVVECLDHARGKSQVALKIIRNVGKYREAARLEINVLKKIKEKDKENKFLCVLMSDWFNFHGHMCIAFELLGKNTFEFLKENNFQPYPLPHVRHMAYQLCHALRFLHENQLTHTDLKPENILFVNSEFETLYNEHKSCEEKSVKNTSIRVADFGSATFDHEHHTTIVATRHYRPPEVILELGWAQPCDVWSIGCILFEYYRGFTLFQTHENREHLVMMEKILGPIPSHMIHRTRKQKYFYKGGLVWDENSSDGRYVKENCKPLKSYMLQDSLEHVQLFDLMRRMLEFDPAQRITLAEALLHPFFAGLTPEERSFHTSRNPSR
T3 sequence (Q02763 23-1124): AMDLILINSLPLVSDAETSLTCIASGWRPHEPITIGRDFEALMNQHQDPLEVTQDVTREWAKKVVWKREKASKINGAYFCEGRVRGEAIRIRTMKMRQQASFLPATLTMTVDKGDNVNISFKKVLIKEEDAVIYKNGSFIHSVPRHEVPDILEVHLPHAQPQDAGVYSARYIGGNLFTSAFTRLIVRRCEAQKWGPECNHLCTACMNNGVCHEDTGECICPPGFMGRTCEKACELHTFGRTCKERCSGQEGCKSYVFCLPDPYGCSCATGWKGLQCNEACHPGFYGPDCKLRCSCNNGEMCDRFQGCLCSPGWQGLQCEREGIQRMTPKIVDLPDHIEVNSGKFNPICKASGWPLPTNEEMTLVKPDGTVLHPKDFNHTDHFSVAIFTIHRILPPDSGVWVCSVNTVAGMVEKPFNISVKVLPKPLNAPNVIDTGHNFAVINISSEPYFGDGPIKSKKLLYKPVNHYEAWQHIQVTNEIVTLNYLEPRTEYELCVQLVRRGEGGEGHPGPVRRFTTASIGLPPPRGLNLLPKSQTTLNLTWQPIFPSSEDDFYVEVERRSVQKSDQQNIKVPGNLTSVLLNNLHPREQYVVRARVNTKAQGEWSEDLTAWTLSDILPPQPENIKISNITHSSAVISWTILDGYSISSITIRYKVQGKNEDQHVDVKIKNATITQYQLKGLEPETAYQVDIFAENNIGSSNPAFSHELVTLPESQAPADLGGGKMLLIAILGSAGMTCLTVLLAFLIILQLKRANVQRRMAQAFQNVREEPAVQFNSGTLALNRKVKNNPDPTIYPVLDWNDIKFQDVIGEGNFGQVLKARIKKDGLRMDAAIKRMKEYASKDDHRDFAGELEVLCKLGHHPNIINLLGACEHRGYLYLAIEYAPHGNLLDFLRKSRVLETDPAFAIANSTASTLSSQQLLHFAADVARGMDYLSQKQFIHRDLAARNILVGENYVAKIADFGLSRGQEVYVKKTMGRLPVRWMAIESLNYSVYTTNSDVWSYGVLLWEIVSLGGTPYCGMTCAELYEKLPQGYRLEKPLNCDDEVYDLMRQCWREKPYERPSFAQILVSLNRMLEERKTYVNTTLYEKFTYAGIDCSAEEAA
T5 sequence (P34947 whole entry): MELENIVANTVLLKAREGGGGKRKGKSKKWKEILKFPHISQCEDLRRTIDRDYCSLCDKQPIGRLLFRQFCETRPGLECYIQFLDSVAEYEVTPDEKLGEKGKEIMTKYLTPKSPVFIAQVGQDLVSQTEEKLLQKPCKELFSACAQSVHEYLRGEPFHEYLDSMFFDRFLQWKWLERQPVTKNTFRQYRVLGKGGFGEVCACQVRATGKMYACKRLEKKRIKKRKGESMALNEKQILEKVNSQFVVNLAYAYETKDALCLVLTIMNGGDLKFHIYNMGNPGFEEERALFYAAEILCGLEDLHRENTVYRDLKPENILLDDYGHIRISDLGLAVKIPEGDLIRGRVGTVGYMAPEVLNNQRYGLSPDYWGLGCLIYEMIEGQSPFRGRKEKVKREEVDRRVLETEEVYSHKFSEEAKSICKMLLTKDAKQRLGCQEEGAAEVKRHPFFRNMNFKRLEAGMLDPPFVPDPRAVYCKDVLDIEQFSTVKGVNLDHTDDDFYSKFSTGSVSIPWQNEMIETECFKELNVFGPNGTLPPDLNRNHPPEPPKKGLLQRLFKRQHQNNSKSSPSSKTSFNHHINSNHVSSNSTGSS

For the molecule `COc1ccnc2[nH]cc(-c3cc(N)nc(N)c3)c12` [meriolin 16], the residual kinase activity on GRK7 (0.03 µM) is recorded as 105 % of control; on GRK7 (0.3 µM), 78 % of control; on ARK5 (0.03 µM), 92 % of control; at ARK5 (0.3 µM) it was 88 % of control; at TIE2 (0.03 µM), 132 % of control; at TIE2 (0.3 µM), 105 % of control. In addition, the residual kinase activity on TTK (0.03 µM) is 49 % of control; on TTK (0.3 µM) it was 8 % of control; at GRK5 (0.03 µM), 118 % of control; on GRK5 (0.3 µM), 91 % of control; on SGK1 (0.03 µM), 92 % of control; at SGK1 (0.3 µM), 76 % of control. The residual kinase activity was 102 % of control on SIK1 (0.03 µM), 98 % of control at SIK1 (0.3 µM), 94 % of control at CLK3 (0.03 µM) and 36 % of control on CLK3 (0.3 µM).

`c1ccc(CNc2cc(-c3c[nH]c4ncccc34)ccn2)cc1` [meriolin 36]: the residual kinase activity on GRK7 (0.3 µM) is given as 94 % of control; at GRK7 (3 µM) it was 48 % of control; at ARK5 (0.3 µM), 90 % of control; on ARK5 (3 µM), 40 % of control; at TIE2 (0.3 µM) it was 113 % of control; on TIE2 (3 µM), 65 % of control. The residual kinase activity is recorded as 55 % of control at TTK (0.3 µM); 17 % of control at TTK (3 µM); 119 % of control on GRK5 (0.3 µM); 74 % of control on GRK5 (3 µM); 30 % of control on SGK1 (0.3 µM); 10 % of control at SGK1 (3 µM). Also, the residual kinase activity on SIK1 (0.3 µM) is reported as 87 % of control; on SIK1 (3 µM), 48 % of control; on CLK3 (0.3 µM), 13 % of control; at CLK3 (3 µM), 1 % of control.

(Values after article PMC11167047 (Cell Death Discovery, 2024).)
